{"source": "patent US20220193070A1", "about": "“METHODS FOR TREATING ABSENCE SEIZURES” (XENON PHARMACEUTICALS INC., priority 2020, published 2022)", "key": {"absence seizures [1]": {"test_system": "absence seizures", "experiment": "Open-label clinical study: absence seizure frequency from patient seizure diaries", "type": "in vivo, human", "text": "Seizure frequency is documented via seizure diaries and side effects and safety are closely monitored. This study informs the feasibility and utility of conducting a larger clinical trial.\nObjectives: The primary objective is to assess the efficacy, safety and tolerability of flunarizine compared to a baseline period on absence seizures in patients with treatment refractory generalized epilepsy taking a minimum of one anti-seizure medication (ASM).\nThis is an open-label, single-centre study to evaluate the clinical efficacy, safety and tolerability of flunarizine administered as adjunctive treatment in participants diagnosed with treatment resistant absence epilepsy. The study includes 20 participants.\nInclusion Criteria: Participants eligible for this study meet all of the following criteria: • 1. Participant is 4 to 18 years of age • 2. Participant has treatment resistant absence seizures. Treatment resistant absence seizures are defined as failure to respond to […] appropriate anti-seizure medications (ASMs). […] Participant must currently be taking a minimum of one ASM • 4. Normal development (may have specific learning disabilities and/or ADHD/ADD) • 5. EEG confirmation of absence seizures and EEG within 2 months of screening visit • 6. Absence seizures reported at least 10 times per week • 7. Participants must have no changes in baseline ASMs for 1 month prior to screening period • 8. Participant or caregiver can maintain a seizure diary • 9. Participant is able to swallow capsules • 10. Written informed consent must be provided. Legal guardians of the participants must be able to understand and provide written consent on behalf of the participant, since study participants may be too young to provide informed consent. For participants 7-18 years of age, assent is required along with written informed consent of the caregiver. • 11. The participant is willing and able to attend all study visits • 12. Participant has the ability to speak and read in English • 13. Females of child bearing potential who are sexually active must be willing to use contraceptive methods for the duration of the study and 6 months post last dose of study drug. • 14. Males who are sexually active with females of child bearing potential must be willing to use contraception for the duration of the study and 3 months post last dose of study drug.\nThe initial dose of flunarizine at Visit 2 is 5 mg/day taken at night. The dose is taken orally as one 5 mg capsule. In order to optimize response to treatment, dose escalation, at the discretion of the investigator, is performed at Visit 3. If the 5 mg/day dose is tolerated by any given participant, the dose is escalated to 10 mg/day taken as two 5 mg capsules. […] The investigator uses discretion to maintain or adjust the dose level based on the study participant's tolerability and clinical response, alongside other medical considerations. If deemed necessary by the investigator, the 10 mg dose is be split into morning and evening doses to reduce minor side effects.\nAt the screening visit, the seizure history is assessed using detailed parental interviews and chart review. The investigator takes the participant's medical history (including date of seizure onset date of epilepsy diagnosis). The participant's vital signs (temperature, blood pressure and heart rate), height and weight are recorded."}, "absence seizures [2]": {"test_system": "absence seizures", "experiment": "Open-label clinical study: number of absence seizures during EEG", "type": "in vivo, human", "parameters": "reduction of absence seizures on EEG: concentration or dose not given beside the values", "text": "The secondary objectives are to evaluate EEG changes in patients with absence epilepsy; to evaluate changes in quality of life for patients; and to evaluate global impression change and clinical impression of change. The secondary outcome measures include median percent change in the number of absence seizures on EEG, and bursts of spike/wave lasting 2 or more seconds in patients treated with flunarizine compared with the baseline period; Clinical and Patient Global Impression of Change scores during the flunarizine treatment period; median percent change in weekly absence seizure frequency from baseline compared to end of study period; and median percent change in weekly absence seizure frequency from flunarizine treatment period."}, "[3]": {"experiment": "Open-label clinical study: safety, tolerability and questionnaires"}}, "note": "Marks after values point to notes of the source that are not given here."}
{"smiles": "Fc1ccc(C(c2ccc(F)cc2)N2CCN(C/C=C/c3ccccc3)CC2)cc1", "note": "[Flunarizine, 1-[bis(4-fluorophenyl)methyl]-4-cinnamyl-piperazine]", "values": [{"measurement": "reduction in diary recorded seizures", "setting": "absence seizures [1]; 2 of the 3 CAE patients", "result": "> 80", "unit": "%"}, {"measurement": "Seizure Frequency at visit 5", "setting": "absence seizures [1]; Patient 1, Jeavons, 10 mg daily, current ASMs VPA, CLON, baseline 409 per month", "result": 608}, {"measurement": "% Reduction in Seizures", "setting": "absence seizures [1]; Patient 1, Jeavons, 10 mg daily, printed as Increase", "result": "~50", "unit": "%"}, {"measurement": "% Reduction in Seizures", "setting": "absence seizures [1]; Patient 3, CAE, 10 mg daily", "result": 85, "unit": "%"}, {"measurement": "Seizure Frequency at visit 5", "setting": "absence seizures [1]; Patient 3, CAE, 10 mg daily, current ASMs LTG, ESM, ketogenic diet, baseline 41 per month", "result": 6}, {"measurement": "% Reduction in Seizures", "setting": "absence seizures [1]; Patient 4, CAE, 10 mg daily", "result": 57, "unit": "%"}, {"measurement": "Seizure Frequency at visit 5", "setting": "absence seizures [1]; Patient 4, CAE, 10 mg daily, current ASM LTG, baseline 79 per month", "result": 34}, {"measurement": "% Reduction in Seizures", "setting": "absence seizures [1]; Patient 5, CAE, 5 mg daily", "result": 83, "unit": "%"}, {"measurement": "Seizure Frequency at visit 5", "setting": "absence seizures [1]; Patient 5, CAE, 5 mg daily, current ASM VPA, baseline 54 per month", "result": 9}, {"measurement": "reduction in diary recorded seizures", "setting": "absence seizures [1]; all 3 CAE patients", "result": "> 50", "unit": "%"}, {"measurement": "change in seizures", "setting": "absence seizures [1]; one of the two patients with Jeavons Syndrome", "result": "increased seizures"}, {"measurement": "study termination", "setting": "absence seizures [1]; the other patient with Jeavons Syndrome", "result": "terminated within one week due to increase in seizures"}, {"measurement": "response to flunarizine", "setting": "absence seizures [1]; the two patients with Jeavons Syndrome", "result": "did not respond"}, {"measurement": "absence seizures on EEG", "setting": "absence seizures [2]; 2 of the three CAE subjects", "result": "resolution of absence seizures"}, {"measurement": "% Reduction in Seizures (EEG)", "setting": "absence seizures [2]; Patient 1 (Jeavons)", "result": 11, "unit": "%"}, {"measurement": "Number of Absence Seizures during EEG, Visit 5", "setting": "absence seizures [2]; Patient 1 (Jeavons), baseline 9", "result": 8}, {"measurement": "% Reduction in Seizures (EEG)", "setting": "absence seizures [2]; Patient 3 (CAE)", "result": 94, "unit": "%"}, {"measurement": "Number of Absence Seizures during EEG, Visit 5", "setting": "absence seizures [2]; Patient 3 (CAE), baseline 16", "result": 1}, {"measurement": "% Reduction in Seizures (EEG)", "setting": "absence seizures [2]; Patient 4 (CAE)", "result": 100, "unit": "%"}, {"measurement": "Number of Absence Seizures during EEG, Visit 5", "setting": "absence seizures [2]; Patient 4 (CAE), baseline 7", "result": 0}, {"measurement": "% Reduction in Seizures (EEG)", "setting": "absence seizures [2]; Patient 5 (CAE)", "result": 100, "unit": "%"}, {"measurement": "Number of Absence Seizures during EEG, Visit 5", "setting": "absence seizures [2]; Patient 5 (CAE), baseline 5", "result": 0}, {"measurement": "% Reduction in Seizures (EEG)", "setting": "absence seizures [2]; Patient 6 (JAE), 10 mg", "result": "50 to 100", "unit": "%***"}, {"measurement": "Number of Absence Seizures during EEG, Visit 5", "setting": "absence seizures [2]; Patient 6 (JAE), 10 mg, baseline 6", "result": 3}, {"measurement": "reduction of absence seizures on EEG", "setting": "absence seizures [2]; one of the three CAE subjects", "result": 94, "unit": "%"}, {"measurement": "reduction in seizures, EEG data", "setting": "absence seizures [2]; single JAE subject", "result": "50 to 100", "unit": "%"}, {"measurement": "Depressive symptoms and somnolence", "setting": "[3]; human, in vivo", "result": "not observed in any patient"}, {"measurement": "tolerability", "setting": "[3]; patients 4 to 18 years, 5 or 10 mg/day oral", "result": "well tolerated"}, {"measurement": "side effect", "setting": "[3]; resulting in medication discontinuation", "result": "weight gain as the only side effect in one patient"}]}
